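Exposure lasted 48 hours, with cells grown in 96-well plates and compounds tested at five concentrations. At the TGI there is no net growth.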
Experiments:
Test in all cases: NCI tumour cell line growth inhibition, 48 h
786-0 renal = system: 786-0 renal
A498 renal = system: A498 renal
A549 NSCLC = system: A549 NSCLC
ACHN renal = system: ACHN renal
BT-549 breast = system: BT-549 breast
CAKI-1 renal = system: CAKI-1 renal
CCRF-CEM leukemia = system: CCRF-CEM leukemia
COLO 205 colon = system: COLO 205 colon
DLD-1 colon = system: DLD-1 colon
DMS 114 small cell lung = system: DMS 114 small cell lung
DMS 273 small cell lung = system: DMS 273 small cell lung
DU-145 prostate = system: DU-145 prostate
EKVX NSCLC = system: EKVX NSCLC
HCC-2998 colon = system: HCC-2998 colon
HCT-116 colon = system: HCT-116 colon
HCT-15 colon = system: HCT-15 colon
HL-60(TB) leukemia = system: HL-60(TB) leukemia
HOP-18 NSCLC = system: HOP-18 NSCLC
HOP-62 NSCLC = system: HOP-62 NSCLC
HOP-92 NSCLC = system: HOP-92 NSCLC
HS 578T breast = system: HS 578T breast
HT29 colon = system: HT29 colon
IGROV1 ovarian = system: IGROV1 ovarian
K-562 leukemia = system: K-562 leukemia
KM12 colon = system: KM12 colon
KM20L2 colon = system: KM20L2 colon
LOX IMVI melanoma = system: LOX IMVI melanoma
LXFL 529 NSCLC = system: LXFL 529 NSCLC
M14 melanoma = system: M14 melanoma
M19-MEL melanoma = system: M19-MEL melanoma
MALME-3M melanoma = system: MALME-3M melanoma
MCF7 breast = system: MCF7 breast
MDA-MB-231 breast = system: MDA-MB-231 breast
MDA-MB-435 = system: MDA-MB-435
MDA-N = system: MDA-N
MOLT-4 leukemia = system: MOLT-4 leukemia
NCI-H226 lung = system: NCI-H226 lung
NCI-H23 lung = system: NCI-H23 lung
NCI-H460 lung = system: NCI-H460 lung
NCI-H522 lung = system: NCI-H522 lung
NCI/ADR-RES ovarian = system: NCI/ADR-RES ovarian
OVCAR-3 ovarian = system: OVCAR-3 ovarian
OVCAR-4 ovarian = system: OVCAR-4 ovarian
OVCAR-5 ovarian = system: OVCAR-5 ovarian
OVCAR-8 ovarian = system: OVCAR-8 ovarian
PC-3 prostate = system: PC-3 prostate
RPMI-8226 leukemia = system: RPMI-8226 leukemia
RXF 393 renal = system: RXF 393 renal
SF-268 CNS = system: SF-268 CNS
SF-295 CNS = system: SF-295 CNS
SF-539 CNS = system: SF-539 CNS
SK-MEL-2 melanoma = system: SK-MEL-2 melanoma
SK-MEL-28 melanoma = system: SK-MEL-28 melanoma
SK-MEL-5 melanoma = system: SK-MEL-5 melanoma
SK-OV-3 ovarian = system: SK-OV-3 ovarian
SN12C renal = system: SN12C renal
SNB-19 CNS = system: SNB-19 CNS
SNB-75 CNS = system: SNB-75 CNS
SNB-78 CNS = system: SNB-78 CNS
SR leukemia = system: SR leukemia
SW-620 colon = system: SW-620 colon
T-47D breast = system: T-47D breast
TK-10 renal = system: TK-10 renal
U251 CNS = system: U251 CNS
UACC-257 melanoma = system: UACC-257 melanoma
UACC-62 melanoma = system: UACC-62 melanoma
UO-31 renal = system: UO-31 renal
XF 498 CNS = system: XF 498 CNS
RXF-631 renal = system: RXF-631 renal

## COC1/C=C\C=C(/C)C(=O)NC2=CC(=O)C(NCCCl)=C(CC(C)CC(OC)C(O)C(C)/C=C(/C)C1OC(N)=O)C2=O (stereo not given)
786-0 renal
  TGI: 9.05 µM
A498 renal
  TGI: 4.55 µM
A549 NSCLC
  TGI: 14.3 µM
ACHN renal
  TGI: 10.2 µM
BT-549 breast
  TGI: 2850 nM
CAKI-1 renal
  TGI: 8.67 µM
CCRF-CEM leukemia
  TGI: 21.9 µM
COLO 205 colon
  TGI: 1.2 µM
DLD-1 colon
  TGI: 11.6 µM
DMS 114 small cell lung
  TGI: 1.6 µM
DMS 273 small cell lung
  TGI: 1.1 µM
DU-145 prostate
  TGI: 11.4 µM
EKVX NSCLC
  TGI: 22.7 µM
HCC-2998 colon
  TGI: 1 µM
HCT-116 colon
  TGI: 2.88 µM
HCT-15 colon
  TGI: 2770 nM
HL-60(TB) leukemia
  TGI: 3.23 µM
HOP-18 NSCLC
  TGI: 1720 nM
HOP-62 NSCLC
  TGI: 5.91 µM
HOP-92 NSCLC
  TGI: 18.6 µM
HS 578T breast
  TGI: 58.4 µM
HT29 colon
  TGI: 1.92 µM
IGROV1 ovarian
  TGI: 13.6 µM
K-562 leukemia
  TGI: 13.5 µM
KM12 colon
  TGI: 2.01 µM
KM20L2 colon
  TGI: 0.385 µM
LOX IMVI melanoma
  TGI: 0.575 µM
LXFL 529 NSCLC
  TGI: 13.9 µM
M14 melanoma
  TGI: 2.48 µM
M19-MEL melanoma
  TGI: 1.57 µM
MALME-3M melanoma
  TGI: 1.48 µM
MCF7 breast
  TGI: 2190 nM
MDA-MB-231 breast
  TGI: 20.4 µM
MDA-MB-435
  TGI: 3.72 µM
MDA-N
  TGI: 12.3 µM
MOLT-4 leukemia
  TGI: 5.13 µM
NCI-H226 lung
  TGI: 8.62 µM
NCI-H23 lung
  TGI: 1.27 µM
NCI-H460 lung
  TGI: 2.52 µM
NCI-H522 lung
  TGI: 0.319 µM
NCI/ADR-RES ovarian
  TGI: 31.1 µM
OVCAR-3 ovarian
  TGI: 8.4 µM
OVCAR-4 ovarian
  TGI: 15 µM
OVCAR-5 ovarian
  TGI: 11.7 µM
OVCAR-8 ovarian
  TGI: 10.5 µM
PC-3 prostate
  TGI: 8.84 µM
RPMI-8226 leukemia
  TGI: 31.4 µM
RXF 393 renal
  TGI: 1.2 µM
SF-268 CNS
  TGI: 14 µM
SF-295 CNS
  TGI: 8.39 µM
SF-539 CNS
  TGI: 2.17 µM
SK-MEL-2 melanoma
  TGI: 2.15 µM
SK-MEL-28 melanoma
  TGI: 2.52 µM
SK-MEL-5 melanoma
  TGI: 3.11 µM
SK-OV-3 ovarian
  TGI: 2.11 µM
SN12C renal
  TGI: 2.8 µM
SNB-19 CNS
  TGI: 13.6 µM
SNB-75 CNS
  TGI: 3.81 µM
SNB-78 CNS
  TGI: 19.2 µM
SR leukemia
  TGI: 1.67 µM
SW-620 colon
  TGI: 2.55 µM
T-47D breast
  TGI: 20.4 µM
TK-10 renal
  TGI: 14.3 µM
U251 CNS
  TGI: 4.14 µM
UACC-257 melanoma
  TGI: 0.911 µM
UACC-62 melanoma
  TGI: 1.33 µM
UO-31 renal
  TGI: 10.6 µM
XF 498 CNS
  TGI: 8.85 µM

## CC1=C/C(=C(\c2ccc(N(C)C)cc2)c2ccc([N+](C)(C)C)cc2)C=CC1=[N+](C)C
786-0 renal
  TGI: 58.2 µM
A498 renal
  TGI: 36.7 µM
A549 NSCLC
  TGI: 28.9 µM
ACHN renal
  TGI: 43.8 µM
CAKI-1 renal
  TGI: 41.1 µM
COLO 205 colon
  TGI: 85.4 µM
DLD-1 colon
  TGI: 45.3 µM
DMS 114 small cell lung
  TGI: 16.1 µM
DMS 273 small cell lung
  TGI: 18.2 µM
EKVX NSCLC
  TGI: 15.8 µM
HCC-2998 colon
  TGI: 48.7 µM
HCT-116 colon
  TGI: 14.3 µM
HCT-15 colon
  TGI: > 100000 nM
HL-60(TB) leukemia
  TGI: 5.93 µM
HOP-62 NSCLC
  TGI: 71.5 µM
HOP-92 NSCLC
  TGI: 30.6 µM
HT29 colon
  TGI: 77.9 µM
IGROV1 ovarian
  TGI: 26.6 µM
K-562 leukemia
  TGI: > 100 µM
KM12 colon
  TGI: 16.1 µM
KM20L2 colon
  TGI: 32.8 µM
LOX IMVI melanoma
  TGI: 17.7 µM
LXFL 529 NSCLC
  TGI: 22.1 µM
M14 melanoma
  TGI: 43 µM
M19-MEL melanoma
  TGI: 20.3 µM
MALME-3M melanoma
  TGI: 32.3 µM
MOLT-4 leukemia
  TGI: 28.2 µM
NCI-H226 lung
  TGI: 33.8 µM
NCI-H23 lung
  TGI: 26.6 µM
NCI-H460 lung
  TGI: 22.4 µM
NCI-H522 lung
  TGI: 31.2 µM
OVCAR-3 ovarian
  TGI: 24.4 µM
OVCAR-4 ovarian
  TGI: 32.9 µM
OVCAR-5 ovarian
  TGI: 69 µM
OVCAR-8 ovarian
  TGI: 69.8 µM
RPMI-8226 leukemia
  TGI: 5.44 µM
RXF 393 renal
  TGI: 25.4 µM
RXF-631 renal
  TGI: 21.4 µM
SF-268 CNS
  TGI: 26.3 µM
SF-295 CNS
  TGI: 19.3 µM
SF-539 CNS
  TGI: 34.6 µM
SK-MEL-2 melanoma
  TGI: 35 µM
SK-MEL-28 melanoma
  TGI: 31.4 µM
SK-MEL-5 melanoma
  TGI: 24.5 µM
SK-OV-3 ovarian
  TGI: 31.6 µM
SN12C renal
  TGI: 22.4 µM
SNB-19 CNS
  TGI: 89.4 µM
SNB-75 CNS
  TGI: 10.6 µM
SNB-78 CNS
  TGI: 53.5 µM
SR leukemia
  TGI: 4.75 µM
SW-620 colon
  TGI: 46.3 µM
TK-10 renal
  TGI: 14.9 µM
U251 CNS
  TGI: 17.6 µM
UACC-257 melanoma
  TGI: 27.9 µM
UACC-62 melanoma
  TGI: 19.3 µM
UO-31 renal
  TGI: 78.1 µM
XF 498 CNS
  TGI: 10.1 µM

Reference: PubChem BioAssay (NCI)
